Data published in ChEMBL document CHEMBL1152405, “Bis-anthracenyl isoxazolyl amides have enhanced anticancer activity” (Bioorg Med Chem Lett, 2009).

Experiments:
Type in all cases: functional
Set-up in all cases: scale not given: the % may be the effect or the level left
ACHN = assay: Growth inhibition of human ACHN cells at 10 uM after 24 hrs by MTT assay relative to control
SF-295 = assay: Growth inhibition of human SF295 cells at 10 uM after 24 hrs by MTT assay relative to control
IGROV-1 = assay: Growth inhibition of human IGROV1 cells at 10 uM after 24 hrs by MTT assay relative to control
SK-MEL-5 = assay: Growth inhibition of human SK-MEL-5 cells at 10 uM after 24 hrs by MTT assay relative to control
NCI-H460 = assay: Growth inhibition of human NCI-H460 cells at 10 uM after 24 hrs by MTT assay relative to control
A498 = assay: Growth inhibition of human A498 cells at 10 uM after 24 hrs by MTT assay relative to control
SNB-19 = assay: Growth inhibition of human SNB19 cells at 10 uM after 24 hrs by MTT assay relative to control
DU-145 = assay: Growth inhibition of human DU145 cells at 10 uM after 24 hrs by MTT assay relative to control
SW-620 = assay: Growth inhibition of human SW620 cells at 10 uM after 24 hrs by MTT assay relative to control
MDA-MB-468 = assay: Growth inhibition of human MDA-MB-468 cells at 10 uM after 24 hrs by MTT assay relative to control
HL-60(TB) = assay: Growth inhibition of human HL-60(TB) cells at 10 uM after 24 hrs by MTT assay relative to control
OVCAR-5 = assay: Growth inhibition of human OVCAR5 cells at 10 uM after 24 hrs by MTT assay relative to control
MDA-MB-435 = assay: Growth inhibition of human MDA-MB-435 cells at 10 uM after 24 hrs by MTT assay relative to control
COLO 205 = assay: Growth inhibition of human COLO205 cells at 10 uM after 24 hrs by MTT assay relative to control
SK-OV-3 = assay: Growth inhibition of human SKOV3 cells at 10 uM after 24 hrs by MTT assay relative to control
NCI/ADR-RES = assay: Growth inhibition of human NCI/ADR-RES cells at 10 uM after 24 hrs by MTT assay relative to control
OVCAR-8 = assay: Growth inhibition of human OVCAR8 cells at 10 uM after 24 hrs by MTT assay relative to control
SK-MEL-28 = assay: Growth inhibition of human SK-MEL-28 cells at 10 uM after 24 hrs by MTT assay relative to control
OVCAR-3 = assay: Growth inhibition of human OVCAR-3 cells at 10 uM after 24 hrs by MTT assay relative to control
A549 = assay: Growth inhibition of human A549 cells at 10 uM after 24 hrs by MTT assay relative to control
MCF7 = assay: Growth inhibition of human MCF7 cells at 10 uM after 24 hrs by MTT assay relative to control
SF-268 = assay: Growth inhibition of human SF268 cells at 10 uM after 24 hrs by MTT assay relative to control
NCI-H322M = assay: Growth inhibition of human NCI-H322M cells at 10 uM after 24 hrs by MTT assay relative to control
[1] = Growth inhibition of human […] cells at 10 uM after 24 hrs by MTT assay relative to control
LOX IMVI = assay: Growth inhibition of human LOXIMVI cells at 10 uM after 24 hrs by MTT assay relative to control
CAKI-1 = assay: Growth inhibition of human Caki1 cells at 10 uM after 24 hrs by MTT assay relative to control
SF-539 = assay: Growth inhibition of human SF539 cells at 10 uM after 24 hrs by MTT assay relative to control
UO-31 = assay: Growth inhibition of human UO31 cells at 10 uM after 24 hrs by MTT assay relative to control
SK-MEL-2 = assay: Growth inhibition of human SK-MEL-2 cells at 10 uM after 24 hrs by MTT assay relative to control
Malme-3M = assay: Growth inhibition of human MALME-3M cells at 10 uM after 24 hrs by MTT assay relative to control

## Cc1onc(-c2c3ccccc3c(Cl)c3ccccc23)c1C(=O)Nc1cc(C(=O)NCCCNC(=O)c2cc(NC(=O)c3c(-c4c5ccccc5c(Cl)c5ccccc45)noc3C)cn2C)n(C)c1
ACHN
  Activity: 79.36%
SF-295
  Activity: 109.86%
IGROV-1
  Activity: 64.38%
SK-MEL-5
  Activity: 104%
NCI-H460
  Activity: 101.62%
A498
  Activity: 118.2%
SNB-19
  Activity: 74.84%
DU-145
  Activity: 103.19%
SW-620
  Activity: 109.27%
MDA-MB-468
  Activity: 92.57%
HL-60(TB)
  Activity: 160.8%
OVCAR-5
  Activity: 95.22%
MDA-MB-435
  Activity: 85.56%
COLO 205
  Activity: 76.5%
SK-OV-3
  Activity: 100.87%
NCI/ADR-RES
  Activity: 103.72%
OVCAR-8
  Activity: 88.63%
SK-MEL-28
  Activity: 116.55%
OVCAR-3
  Activity: 88.29%
A549
  Activity: 86.45%
MCF7
  Activity: 94.12%
SF-268
  Activity: 72.67%
NCI-H322M
  Activity: 105.3%
[1]
  Activity: 78.11%
LOX IMVI
  Activity: 82.59%
CAKI-1
  Activity: 71.63%
SF-539
  Activity: 91.99%
UO-31
  Activity: 60.64%
SK-MEL-2
  Activity: 102.24%
Malme-3M
  Activity: 94.79%
